Results taken from publication PMC4885879, “Genomic Rearrangements and Functional Diversification of lecA and lecB Lectin-Coding Regions Impacting the Efficacy of Glycomimetics Directed against Pseudomonas aeruginosa” (Frontiers in Microbiology, 2016).

How the values were obtained:
LecBPA7 [1] = target: T1, LecBPA7 (Pseudomonas paraeruginosa, UniProt A6V267); experiment: ITC; type: binding; parameters: gene PSPA7_1769; recombinant LecBPA7
LecBPA7 [2] = target: T1, LecBPA7; experiment: X-ray crystal structure ([…] Å) and ITC; type: binding; parameters: gene PSPA7_1769; recombinant LecBPA7, 114 amino acids, tetramer

T1 sequence (A6V267 entry or part of it): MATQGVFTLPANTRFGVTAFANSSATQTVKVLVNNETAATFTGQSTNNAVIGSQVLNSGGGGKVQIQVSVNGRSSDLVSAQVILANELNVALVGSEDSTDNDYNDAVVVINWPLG

Compound	Kd (LecBPA7 [1])	Kd (LecBPA7 [2])
CO[C@@H]1O[C@@H](C)[C@@H](O)[C@@H](O)[C@@H]1O [FucOMe, methyl α-L-fucoside]	2200 nM	
CC(=O)N[C@H]1[C@H](O[C@H]2[C@@H](O)[C@@H](CO)OC(O)[C@@H]2O)O[C@H](CO)[C@@H](O[C@@H]2O[C@@H](C)[C@@H](O)[C@@H](O)[C@@H]2O)[C@@H]1O[C@@H]1O[C@H](CO)[C@H](O)[C@H](O)[C@H]1O (stereo partly drawn) [Lewis^a tetrasaccharide]		2010 nM
CO[C@H]1O[C@H](CO)[C@@H](O)[C@H](O)[C@@H]1O [ManOMe, methyl α-D-mannoside]	73000 nM	
